Data: patent US7235548B2, “Compounds and their use as positive AMPA receptor modulators” (NeuroSearch A/S, priority 1998, dated 2007)

How the values were obtained:
[1] = biological target: ionotropic quisqualate (AMPA) receptors; assay: In vitro inhibition of 3H-AMPA binding; conditions: 5 nM 3H-AMPA, rat cerebral cortex membranes, 30 min at 2° C.; read-out: IC50 (concentration of the test substance which inhibits the specific binding of 3H-AMPA by 50%)
Description: L-glutamate (GLU) is the major excitatory neurotransmitter in the mammalian central nervous system. From electrophysiological- and binding studies, there appear to be at least three subtypes of GLU receptors, tentatively named N-methyl-D-aspartate (NMDA)-, quisqualate- and kainate receptors. GLU receptor subtypes sensitive to quisqualate and kainate as a group are often referred to as non-NMDA receptors. Receptor binding studies using the labelled agonists ^3H-AMPA (α-amino-3-hydroxy-5-methyl-4-isoxazolepropionic acid) (for quisqualate receptors) and ^3H-kainate (for kainate receptors) have shown different antagonist selectivities and regional distribution. AMPA has been known for several years to be a potent and selective agonist at the traditionally named quisqualate receptors. Activation of quisqualate receptors by AMPA is associated with Na^+ influx and K^+ efflux leading to depolarization.
The non-NMDA receptors have recently been reclassified to include the quisqualate activated metabotropic receptor type, linked to the inositol triphosphate and diacylglycerate metabolism. […] Selective activation of the metabotropic type has been claimed for trans-ACPD. Recently, the potent and competitive non-NMDA receptor antagonists CNQX and NBQX have been described, and CNQX have been reported not to block the effect of quisqualate at the metabotropic receptor subtype. ^3H-AMPA is a selective radioligand for labelling the ionotropic quisqualate (AMPA) receptors.
Preparations are performed at 0–4° C. unless otherwise indicated. Cerebral cortex from male Wistar rats (150–200 g) is homogenized for 5–10 sec in 20 ml Tris-HCl (30 mM, pH 7.4) using an Ultra-Turrax homogenizer. The suspension is centrifuged at 27,000×g for 15 min and the pellet is washed three times with buffer (centrifuged at 27,000×g for 10 min). The washed pellet is homogenized in 20 ml of buffer and incubated on a water bath (37° C.) for 30 min to remove endogenous glutamate and then centrifuged for 10 min at 27,000×g. The pellet is then homogenized in buffer and centrifuged at for 10 min at 27,000×g. The final pellet is resuspended in 30 ml buffer and the preparation is frozen and stored at −20° C.
The membrane preparation is thawed and centrifuged at 2° C. for 10 min at 27,000×g for 10 min. The pellet is washed twice with 20 ml 30 mM Tris-HCl containing 2.5 mM CaCl2, pH 7.4 using an Ultra-Turrax homogenizer and centrifuged for 10 min at 27,000×g. The final pellet is resuspended in 30 mM Tris-HCl containing 2.5 mM CaCl2 and 100 mM KSCN, pH 7.4 (100 ml per g of original tissue) and used for binding assays. Aliquots of 0.5 (0.2) ml are added to 25 (20) μl of test solution and 25(20) μl of ^3H-AMPA (5 nM, final concentration), mixed and incubated for 30 min at 2° C. Non-specific binding is determined using L-glutamate (0.6 mM, final concentration). After incubation the 550 μl samples are added 5 ml of ice-cold buffer and poured directly onto Whatman GF/C glass fibre filters under suction and immediately washed with 5 ml of ice-cold buffer. The 240 μl samples are filtered over glass fibre filter using a Skatron cell harvrester. The filters are washed with 3 ml ice-cold buffer. The amount of radioactivity on the filters is determined by conventional liquid scintillation counting. Specific binding is total binding minus non-specific binding.
The test value will be given as the IC50 (the concentration (μM) of the test substance which inhibits the specific binding of ^3H-AMPA by 50%)

AMPA receptor = assay: Voltage clamp (whole cell patch clamp), current induced by AMPA in cultured mouse neocortical neurons; type: cell-based; conditions: for reversibility of the potentiation: after wash out of the compound; for potentiation of the current induced by application of 30 μM AMPA: holding voltage −60 mV
Experimental: Experiments were performed in voltage clamp using conventional whole cell patch clamp methods (Hamill et al., 1981), essentially as described previously (Mathiesen et al., 1998). The following salt solutions were used (mM): NaCl (140), KCl (4), CaCl2 (2), MgCl2 (1), Sucrose (30), Tetrodotoxin (0.0003), Bicuculline Methiodide (0.005) and HEPES (10, pH 7.4). Intracellular solution (mM): CsCl (120), CsF (20), MgCl2 (2), EGTA (10), HEPES (10, pH=7.2).
Mouse neocortical neurons were cultured essentially as described by Drejer et al. (1987). Briefly, the forebrains from embryonic (E17) NMRI mice were removed under sterile conditions. The tissue was chopped in 0.4 mm cubes and the triturated with trypsin (12.5 μg/ml) and DNAse (2.5 μg/ml), 15 min, 37° C. The cells were suspended at a concentration of 1×10^6 cells/ml in a slightly modified DMEM which contained horse serum (10% (v/v)), penicillin (333 U/ml), paraaminobenzoic acid (1 mg/ml), L-glutamine (0.5 mM), insulin (0.08 U/ml) and KCl (23.8 mM). The cell suspension was subsequently inoculated into poly-L-lysine coated 35 mm Petri dishes (2 ml/dish). Glass coverslips (3.5 mm) were placed in the dishes before coating. After 24 hr in culture, the medium was replaced by freshly made medium containing 1% N2 supplement instead of serum.
The cells were kept in culture for 7–14 days at 37° C. (5% CO2/95% O2) before experiments were carried out.
Electronics, programs and data acquisition: The amplifier used was the EPC-9 (HEKA-electronics, Lambrect, Germany) run by a Power Macintosh G3 computer via an ITC-16 interface. Experimental conditions were set with the Pulse-software accompanying the amplifier. Data were low pass filtered and sampled directly to hard-disk at a rate of 3 times the cut-off frequency.
Pipettes and electrodes: Pipettes were pulled from borosilicate glass (Modulohm, Copenhagen, Denmark) using a horizontal electrode puller (Zeitz-Instrumente, Augsburg, Germany). The pipette resistances were 1.7–2.4 MW in the salt solutions used in these experiments. The pipette electrode was a chloridized silver wire, and the reference was a silverchloride pellet electrode (In Vivo Metric, Healdsburg, USA) fixed to the experimental chamber. The electrodes were zeroed with the open pipette in the bath just prior to sealing.
Experimental procedure: Coverslips were transferred to a […] experimental chamber mounted on the stage of an inverted microscope (IMT-2, Olympus) supplied with Nomarski optics. The neurons were continuously superfused with extracellular saline at a rate of 2.5 ml/min. After giga-seal formation (1–5 GW, success-rate≈90%) the whole cell configuration was attained by suction.
The cells were held at a holding voltage of −60 mV and at the start of each experiment the current was continuously measured for at least 30 sec to ensure a stable leak current. AMPA-containing solutions were delivered to the chamber through a custom-made gravity-driven flowpipe, the tip of which was placed approximately 50 μm from the cell. Application was triggered when the tubing connected to the flow pipe was compressed by a valve controlled by the Pulse-software. AMPA (30 μM) was applied for 1 sec every 45 sec. After obtainment of responses of a repeatable amplitude the compound to be tested was included in both the chamber and in the AMPA-containing solution. The compound was present until responses of a new repeatable was obtained.
The sample interval in all experiments was 310 μsec.
All experiments were performed at room temperature (20–25° C.).

SMILES	IC50 [1] [µM]	reversibility of the potentiation (AMPA receptor)	persistence of the effect after wash out (AMPA receptor; compound 3 μM)	potentiation of the current induced by application of 30 μM AMPA (AMPA receptor; compound 3 μM)	concentration dependence of the effect (AMPA receptor; FIG. 8)	potentiation of the current induced by application of 30 μM AMPA (AMPA receptor; compound 10 μM)
CN1CCN(S(=O)(=O)c2ccc3c(c2)S(=O)(=O)NC(C2CCCCC2)N3)CC1 (stereo not drawn) [Compound 61, 3-Cyclohexyl-7-(4′-methylpiperazino)sulfonyl-1,2,3,4-tetrahydro-1,2,4-benzothiadiazine-1,1-dioxide]	8.5	–	–	–	–	–
O=S1(=O)NC(C2CCCCC2)Nc2ccc(S(=O)(=O)N3CCOCC3)cc21 (stereo not drawn) [Compound 63, 3-Cyclohexyl-7-morpholinosulfonyl-1,2,3,4-tetrahydro-1,2,4-benzothiadiazine-1,1-dioxide]	6	reversible	persits for several minutes after wash out	potentiated	–	–
Cc1cc2c(cc1S(=O)(=O)N1CCCCC1)S(=O)(=O)NC(C1CCCC1)N2 (stereo not drawn) [Compound 114, 3-Cyclopentyl-6-methyl-7-piperidinosulfonyl-1,2,3,4-tetrahydro-1,2,4-benzothia-diazine-1,1-dioxide]	33	reversible	–	potentiated	concentration-dependent	–
Cc1cc2c(cc1S(=O)(=O)N1CCOCC1)S(=O)(=O)NC(C1CCCCC1)N2 (stereo not drawn) [Compound 115, 3-Cyclohexyl-6-methyl-7-morpholinosulfonyl-1,2,3,4-tetrahydro-1,2,4-benzothiadiazine-1,1-dioxide]	7	reversible	–	–	–	potentiated
